Key:
A549 = test: Antiproliferative against human A549 cells assessed as inhibition of cell viability incubated for 48 hrs by CCK-8 assay; format: functional, cell-based; settings: A549, 48 h
[1] = Selectivity ratio of IC50 for antiproliferative activity against human A549/Taxol cells to IC50 for antiproliferative activity against human A549 cells; format: functional
A549/TR [2] = test: Antiproliferative activity against human A549/Taxol cells assessed inhibition of cell viability incubated for 48 hrs by CCK-8 assay; format: functional, cell-based
Cytochrome P450 1A2 = molecular target: T1, Cytochrome P450 1A2 (Homo sapiens, UniProt P05177); test: Inhibition of human recombinant CYP1A2 using 7-ethoxyresorufin as substrate incubated under dark condition for 45 mins in presence of NADPH by EROD fluorescence assay; format: ADME
T1 sequence (P05177 whole entry): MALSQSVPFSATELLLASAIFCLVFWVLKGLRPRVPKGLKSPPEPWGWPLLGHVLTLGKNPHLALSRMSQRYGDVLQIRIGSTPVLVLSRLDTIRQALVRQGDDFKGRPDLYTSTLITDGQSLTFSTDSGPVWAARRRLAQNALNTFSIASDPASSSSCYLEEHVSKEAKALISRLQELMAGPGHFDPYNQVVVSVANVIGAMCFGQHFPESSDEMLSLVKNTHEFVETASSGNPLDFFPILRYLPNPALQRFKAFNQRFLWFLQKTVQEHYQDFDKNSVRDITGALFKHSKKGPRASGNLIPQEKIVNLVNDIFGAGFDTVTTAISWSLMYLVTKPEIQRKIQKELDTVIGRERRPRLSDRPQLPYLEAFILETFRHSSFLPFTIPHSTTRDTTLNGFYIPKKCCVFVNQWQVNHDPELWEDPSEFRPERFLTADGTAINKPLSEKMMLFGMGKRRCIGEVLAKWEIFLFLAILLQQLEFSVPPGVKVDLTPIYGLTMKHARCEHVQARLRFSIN

A549/TR [3] = test: Inhibition of cell invasion in human A549/Taxol cells assessed as invasive cells at 5 uM incubated for 24 hrs by transwell invasion assay relative to control; format: functional; design: scale not given: the % may be the effect or the level left
A549/TR [4] = test: Inhibition of cell migration in human A549/Taxol cells assessed as wound closure at 5 uM measured after 24 hrs by scratch-wound healing assay relative to control; format: functional; design: scale not given: the % may be the effect or the level left
[5] = Cytotoxicity against human BEAS-2B cells assessed as inhibition of cell viability incubated for 48 hrs by CCK-8 assay; format: toxicity, cell-based
[6] = Cytotoxicity against HUVEC assessed as inhibition of cell viability incubated for 48 hrs by CellTiter Glo assay; format: toxicity, cell-based; settings: human, HUVEC cells
CYP1B1 = molecular target: T2, CYP1B1 (Homo sapiens, UniProt Q16678); test: Inhibition of human recombinant CYP1B1 using 7-ethoxyresorufin as substrate at 100 uM incubated under dark condition for 30 mins in presence of NADPH by EROD fluorescence assay relative to control; format: ADME; settings: recombinant CYP1B1, probe 7-ethoxyresorufin
T2 sequence (Q16678 whole entry): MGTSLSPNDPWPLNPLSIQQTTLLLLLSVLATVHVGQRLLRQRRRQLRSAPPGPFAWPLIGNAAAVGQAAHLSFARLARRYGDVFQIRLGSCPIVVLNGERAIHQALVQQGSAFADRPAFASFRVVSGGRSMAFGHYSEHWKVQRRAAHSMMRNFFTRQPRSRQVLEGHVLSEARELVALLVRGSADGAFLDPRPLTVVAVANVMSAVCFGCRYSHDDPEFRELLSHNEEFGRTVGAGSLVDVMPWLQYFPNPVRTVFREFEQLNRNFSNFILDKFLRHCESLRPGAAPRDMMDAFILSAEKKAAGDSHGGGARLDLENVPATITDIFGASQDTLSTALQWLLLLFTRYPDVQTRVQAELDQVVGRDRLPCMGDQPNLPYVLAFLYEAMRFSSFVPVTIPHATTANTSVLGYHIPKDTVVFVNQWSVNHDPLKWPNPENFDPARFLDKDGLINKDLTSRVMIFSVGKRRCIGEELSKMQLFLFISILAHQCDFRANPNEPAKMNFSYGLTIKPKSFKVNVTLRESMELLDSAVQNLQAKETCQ

CYP2C8 = molecular target: T3, CYP2C8 (Homo sapiens, UniProt P10632); test: Inhibition of CYP2C8 in human liver microsome at 10 uM pre-incubated with compound for 5 mins followed NADPH addition and measured after 5 mins by LC-MS/MS analysis relative to control; format: ADME; settings: liver microsomes, time 10 min
T3 sequence (P10632 whole entry): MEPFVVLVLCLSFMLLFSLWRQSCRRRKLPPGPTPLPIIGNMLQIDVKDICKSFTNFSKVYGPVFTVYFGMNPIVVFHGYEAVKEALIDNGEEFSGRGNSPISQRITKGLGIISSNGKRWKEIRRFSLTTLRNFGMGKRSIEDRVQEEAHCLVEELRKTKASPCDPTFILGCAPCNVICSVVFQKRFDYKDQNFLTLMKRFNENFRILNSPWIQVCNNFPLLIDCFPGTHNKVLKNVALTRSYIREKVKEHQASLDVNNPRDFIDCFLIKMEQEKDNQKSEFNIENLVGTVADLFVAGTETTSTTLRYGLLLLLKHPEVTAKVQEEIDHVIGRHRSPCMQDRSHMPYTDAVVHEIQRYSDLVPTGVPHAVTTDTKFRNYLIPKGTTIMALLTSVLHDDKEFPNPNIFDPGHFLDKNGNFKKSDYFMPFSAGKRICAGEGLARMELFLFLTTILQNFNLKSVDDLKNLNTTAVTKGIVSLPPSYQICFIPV

[7] = Stability in human plasma assessed as compound remaining at 100 uM measured after 15 mins by LC-MS/MS analysis; format: ADME, cell-free; settings: read-out: Stability
[8] = Stability in human plasma assessed as compound remaining at 100 uM measured after 60 mins by LC-MS/MS analysis; format: ADME, cell-free; settings: read-out: Stability
[9] = Stability in human plasma assessed as compound remaining at 100 uM measured after 5 mins by LC-MS/MS analysis; format: ADME, cell-free; settings: read-out: Stability
[10] = Stability in human plasma assessed as compound remaining at 100 uM measured after 120 mins by LC-MS/MS analysis; format: ADME, cell-free; settings: read-out: Stability
[11] = Stability in human plasma assessed as compound remaining at 100 uM measured after 30 mins by LC-MS/MS analysis; format: ADME, cell-free; settings: read-out: Stability
[12] = Metabolic stability in liver microsome (unknown origin) assessed as intrinsic clearance at 0.5 mg/mL measured up to 60 mins by LC-MS/MS analysis; format: ADME; settings: human, liver microsomes, read-out: CLH
[13] = Metabolic stability in liver microsomes (unknown origin) assessed as half life at 0.5 mg/ml measured up to 60 mins by LC-MS/MS analysis; format: ADME, Microsome; settings: human
CYP2D6 = CYP2D6 (Homo sapiens, UniProt P10635); test: Inhibition of CYP2D6 in human liver microsome at 3 uM pre-incubated with compound for 5 mins followed NADPH addition and measured after 10 mins by LC-MS/MS analysis relative to control; settings: liver microsomes
Sequence of CYP2D6 (P10635 whole entry): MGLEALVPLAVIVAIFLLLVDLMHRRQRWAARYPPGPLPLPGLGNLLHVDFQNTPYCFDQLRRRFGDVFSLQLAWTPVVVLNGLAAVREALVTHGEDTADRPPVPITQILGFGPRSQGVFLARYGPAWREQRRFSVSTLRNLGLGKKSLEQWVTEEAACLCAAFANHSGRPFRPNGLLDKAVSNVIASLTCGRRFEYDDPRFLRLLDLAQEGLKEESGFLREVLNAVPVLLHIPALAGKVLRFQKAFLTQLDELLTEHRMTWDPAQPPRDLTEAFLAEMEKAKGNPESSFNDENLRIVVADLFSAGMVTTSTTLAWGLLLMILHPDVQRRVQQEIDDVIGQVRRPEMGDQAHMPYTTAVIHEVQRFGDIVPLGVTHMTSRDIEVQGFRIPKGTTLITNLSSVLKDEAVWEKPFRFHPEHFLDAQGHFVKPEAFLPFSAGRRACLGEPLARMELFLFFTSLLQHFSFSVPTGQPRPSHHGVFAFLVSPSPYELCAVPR

CYP2C9 = CYP2C9 (Homo sapiens, UniProt P11712); test: Inhibition of CYP2C9 in human liver microsome at 3 uM pre-incubated with compound for 5 mins followed NADPH addition and measured after 10 mins by LC-MS/MS analysis relative to control; settings: liver microsomes
Sequence of CYP2C9 (P11712 whole entry): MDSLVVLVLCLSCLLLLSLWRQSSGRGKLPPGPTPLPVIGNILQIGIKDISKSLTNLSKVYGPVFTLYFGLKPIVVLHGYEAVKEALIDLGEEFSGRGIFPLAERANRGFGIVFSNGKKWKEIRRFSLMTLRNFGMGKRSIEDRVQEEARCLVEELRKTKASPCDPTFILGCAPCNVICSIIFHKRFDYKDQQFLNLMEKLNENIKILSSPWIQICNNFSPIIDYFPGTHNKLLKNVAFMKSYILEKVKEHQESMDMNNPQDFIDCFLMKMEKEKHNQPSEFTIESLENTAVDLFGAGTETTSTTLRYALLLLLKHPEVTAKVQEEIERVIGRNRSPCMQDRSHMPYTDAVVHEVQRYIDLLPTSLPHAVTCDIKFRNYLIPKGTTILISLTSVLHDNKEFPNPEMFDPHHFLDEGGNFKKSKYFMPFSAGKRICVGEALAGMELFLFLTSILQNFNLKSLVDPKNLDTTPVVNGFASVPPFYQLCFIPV

Cytochrome P450 1A1 = molecular target: T4, Cytochrome P450 1A1 (Homo sapiens, UniProt P04798); test: Inhibition of human recombinant CYP1A1 using 7-ethoxyresorufin as substrate incubated under dark condition for 15 mins in presence of NADPH by EROD fluorescence assay; format: ADME
T4 sequence (P04798 whole entry): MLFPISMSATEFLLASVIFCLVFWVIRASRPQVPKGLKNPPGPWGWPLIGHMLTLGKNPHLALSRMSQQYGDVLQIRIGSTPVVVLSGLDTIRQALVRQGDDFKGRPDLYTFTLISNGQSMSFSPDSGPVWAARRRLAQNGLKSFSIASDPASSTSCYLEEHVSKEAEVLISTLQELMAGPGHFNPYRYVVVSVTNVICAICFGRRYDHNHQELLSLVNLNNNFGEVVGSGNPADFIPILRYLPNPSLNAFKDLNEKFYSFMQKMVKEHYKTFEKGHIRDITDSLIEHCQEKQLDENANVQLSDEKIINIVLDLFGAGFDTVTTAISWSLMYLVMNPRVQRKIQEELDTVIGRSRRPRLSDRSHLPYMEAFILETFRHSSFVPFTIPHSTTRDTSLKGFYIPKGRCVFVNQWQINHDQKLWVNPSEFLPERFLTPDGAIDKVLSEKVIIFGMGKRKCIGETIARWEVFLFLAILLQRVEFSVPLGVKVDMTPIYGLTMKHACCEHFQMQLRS

Homo sapiens [14] = organism: Homo sapiens; test: Selectivity index, ratio of IC50 for human recombinant CYP1A2 to IC50 for human recombinant CYP1B1 using 7-ethoxyresorufin as substrate
Cytochrome P450 1B1 = molecular target: T5, Cytochrome P450 1B1 (Homo sapiens, UniProt Q16678); test: Inhibition of human recombinant CYP1B1 using 7-ethoxyresorufin as substrate incubated under dark condition for 30 mins in presence of NADPH by EROD fluorescence assay; format: ADME
T5 sequence (Q16678 whole entry): T2 sequence (Q16678 whole entry)

Homo sapiens [15] = organism: Homo sapiens; test: Selectivity index, ratio of IC50 for human recombinant CYP1A1 to IC50 for human recombinant CYP1B1 using 7-ethoxyresorufin as substrate
CYP2C19 = CYP2C19 (Homo sapiens, UniProt P33261); test: Inhibition of CYP2C19 in human liver microsome at 3 uM pre-incubated with compound for 5 mins followed NADPH addition and measured after 30 mins by LC-MS/MS analysis relative to control; format: ADME; settings: liver microsomes, time 35 min
Sequence of CYP2C19 (P33261 whole entry): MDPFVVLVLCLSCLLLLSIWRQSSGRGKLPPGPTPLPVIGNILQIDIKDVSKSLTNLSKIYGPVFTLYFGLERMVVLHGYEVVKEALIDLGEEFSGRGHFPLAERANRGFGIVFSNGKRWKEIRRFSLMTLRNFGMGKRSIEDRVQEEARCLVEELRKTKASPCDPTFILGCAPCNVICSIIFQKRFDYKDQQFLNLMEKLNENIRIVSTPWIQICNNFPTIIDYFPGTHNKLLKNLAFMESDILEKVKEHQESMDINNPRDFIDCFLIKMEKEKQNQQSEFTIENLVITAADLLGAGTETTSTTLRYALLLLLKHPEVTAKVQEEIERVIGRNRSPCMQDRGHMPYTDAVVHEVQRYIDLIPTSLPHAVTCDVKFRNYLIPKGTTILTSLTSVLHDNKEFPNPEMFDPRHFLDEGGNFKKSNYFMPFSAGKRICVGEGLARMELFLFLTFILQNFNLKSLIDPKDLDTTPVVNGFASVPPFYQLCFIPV

IC50 (Cytochrome P450 1A2) [µM] | inhibition at 0.5 h, 100 µM (CYP1B1) [%] | IC50 (Cytochrome P450 1A1) [µM] | Ratio IC50 (Homo sapiens [14]) | IC50 (Cytochrome P450 1B1) [µM] | Ratio IC50 (Homo sapiens [15]) | Compound | further results
0.712 | 102 | 0.223 | 212 | 0.00336 | 66.2 | O=C(Nc1cc(Cl)cc(Cl)c1)c1nc(-c2ccccc2)cs1 | 
0.386 | 102 | 0.213 | 327 | 0.00118 | 180 | O=C(Nc1ccc(Cl)cc1)c1nc(-c2ccccc2)cs1 | 
0.619 | 96.5 | 0.23 | 35.9 | 0.0173 | 13.3 | COc1cc(Cl)cc(NC(=O)c2nc(-c3ccccc3)cs2)c1 | 
0.488 | 102 | 0.251 | 137 | 0.00357 | 70.3 | O=C(Nc1ccc(Cl)cc1Cl)c1nc(-c2ccccc2)cs1 | 
0.465 | 82.2 | 0.215 | 19.4 | 0.0239 | 9 | O=C(Nc1cccc(F)c1)c1nc(-c2ccccc2)cs1 | 

Second part, the compound before the results:

Compound | IC50 (Cytochrome P450 1A2) [µM] | inhibition at 0.5 h, 100 µM (CYP1B1) [%] | IC50 (Cytochrome P450 1A1) [µM] | Ratio IC50 (Homo sapiens [14]) | IC50 (Cytochrome P450 1B1) [µM] | Ratio IC50 (Homo sapiens [15]) | further results
CC(=O)O[C@H]1C(=O)[C@@]2(C)[C@H]([C@H](OC(=O)c3ccccc3)[C@]3(O)C[C@H](OC(=O)[C@H](O)[C@@H](NC(=O)c4ccccc4)c4ccccc4)C(C)=C1C3(C)C)[C@]1(OC(C)=O)CO[C@@H]1C[C@@H]2O [PACLITAXEL] |  |  |  |  |  |  | IC50 (A549): 0.0314 µM; Ratio IC50 [1]: 263.8; IC50 (A549/TR [2]): 8.29 µM
COc1cc(/C=C/c2ccc(OC)cc2OC)cc(OC)c1 | 1.94 | 103 |  |  |  |  | Activity (A549/TR [3]): 40.2%; Activity (A549/TR [4]): 12.6%; IC50 (A549): 7.9 µM; IC50 at 48 h [5]: 2.9 µM; IC50 at 48 h [6]: > 40 µM
O=c1c(O)c(-c2ccc(O)c(O)c2)oc2cc(O)cc(O)c12 [QUERCETIN] |  |  |  |  |  |  | inhibition at 5 min, 10 µM (CYP2C8): 77.2%
CC(C)[N+](C)(CCOC(=O)C1c2ccccc2Oc2ccccc21)C(C)C [PROPANTHELINE BROMIDE] |  |  |  |  |  |  | remaining at 0.25 h, 100 µM [7]: 66.5%; remaining at 1 h, 100 µM [8]: 11.6%; remaining at 5 min, 100 µM [9]: 90.7%; remaining at 2 h, 100 µM [10]: 1.7%; remaining at 0.5 h, 100 µM [11]: 41.3%
O=C(O)Cc1ccccc1Nc1c(Cl)cccc1Cl [DICLOFENAC] |  |  |  |  |  |  | CLint scaled [12]: 226 mL/min/kg; half-life [13]: 5.5 min
C=C[C@H]1C[N@@]2CC[C@H]1C[C@@H]2[C@@H](O)c1ccnc2ccc(OC)cc12 [QUINIDINE] |  |  |  |  |  |  | inhibition at 10 min, 3 µM (CYP2D6): 89.3%
Nc1ccc(S(=O)(=O)Nc2ccnn2-c2ccccc2)cc1 [SULFAPHENAZOLE] |  |  |  |  |  |  | inhibition at 10 min, 3 µM (CYP2C9): 79%
O=C(Nc1ccc(OC(F)F)cc1)c1nc(-c2ccccc2)cs1 | 0.679 | 100 | 0.21 | 2610 | 0.00026 | 808 | 
Cc1ccc(NC(=O)c2nc(-c3ccccc3)cs2)cc1 | 1 | 94.2 | 0.977 | 27.1 | 0.037 | 26.4 | 
CCC1(c2ccccc2)NC(=O)N(Cc2ccccc2)C1=O (centres undefined) |  |  |  |  |  |  | inhibition at 0.5 h, 3 µM (CYP2C19): 89.8%
O=C(Nc1ccc(C(F)F)cc1)c1nc(-c2ccccc2)cs1 | 1.07 | 99.9 | 1.72 | 447 | 0.00239 | 721 | 
